Data on 24 compounds can be found in patent publication US9580411B2, “Substituted sulfonamide compounds” (Hoffmann-La Roche Inc., priority 2012, dated 2017).

The target in this assay is hTRPA1 (Homo sapiens (Human), UniProt O75762). In words: Dose response calcium flux assay (FLIPR), ChanTest hTRPA1-CHO stably transfected cell line. In kind it is cell-based. The settings on record: CHO-K1 Tet-On human TRPA1 cells, cinnamaldehyde agonist (final 100 uM). The procedure: IC50 Determinations of Exemplified Compounds Dose Response Assay: Chan Test hTRPA1-CHO Stably Transfected Cell Line
hTRPA1, sequence (O75762 whole entry): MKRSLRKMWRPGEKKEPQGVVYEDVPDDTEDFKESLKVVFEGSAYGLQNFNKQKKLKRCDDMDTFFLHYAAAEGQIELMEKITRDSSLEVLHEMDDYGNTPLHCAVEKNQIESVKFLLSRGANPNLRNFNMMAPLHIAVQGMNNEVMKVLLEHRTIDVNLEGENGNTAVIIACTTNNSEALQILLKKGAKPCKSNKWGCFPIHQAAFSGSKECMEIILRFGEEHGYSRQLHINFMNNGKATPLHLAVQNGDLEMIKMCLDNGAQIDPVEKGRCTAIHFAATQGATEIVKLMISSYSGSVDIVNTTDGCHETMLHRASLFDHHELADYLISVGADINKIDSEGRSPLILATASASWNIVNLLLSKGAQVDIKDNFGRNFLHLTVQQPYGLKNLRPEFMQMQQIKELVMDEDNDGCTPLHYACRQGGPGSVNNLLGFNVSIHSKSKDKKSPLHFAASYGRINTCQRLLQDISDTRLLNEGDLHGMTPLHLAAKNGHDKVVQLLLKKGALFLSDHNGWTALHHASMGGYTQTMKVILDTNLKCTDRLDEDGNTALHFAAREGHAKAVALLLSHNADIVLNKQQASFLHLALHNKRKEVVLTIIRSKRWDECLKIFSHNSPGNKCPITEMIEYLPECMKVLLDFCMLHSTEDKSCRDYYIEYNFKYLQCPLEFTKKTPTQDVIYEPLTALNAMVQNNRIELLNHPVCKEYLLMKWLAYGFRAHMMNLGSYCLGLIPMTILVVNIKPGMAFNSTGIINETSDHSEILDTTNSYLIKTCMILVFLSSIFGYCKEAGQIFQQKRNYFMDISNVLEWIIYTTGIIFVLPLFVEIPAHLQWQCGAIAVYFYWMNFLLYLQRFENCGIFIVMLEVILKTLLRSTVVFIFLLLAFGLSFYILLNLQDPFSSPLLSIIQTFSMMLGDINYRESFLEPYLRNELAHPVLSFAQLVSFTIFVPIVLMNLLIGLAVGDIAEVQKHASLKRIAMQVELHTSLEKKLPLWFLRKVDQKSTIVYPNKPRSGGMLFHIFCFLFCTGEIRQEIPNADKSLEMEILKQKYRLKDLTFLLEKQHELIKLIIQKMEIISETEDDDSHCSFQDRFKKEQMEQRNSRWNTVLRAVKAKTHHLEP
CHO-K1 Tet-On_HOMSA_TRPA1_Clone_20
Chinese Hamster Ovary cells, inducible expression
• Ham's F-12 with 10% tetracycline-free FBS • 1× penicillin-streptomycin • 1× glutamax • 0.01 mg/ml Blasticidin • 0.40 mg/ml Zeocin • The cell line doubling rate was ˜15 hours. […] Experiments were run at 24 hours post induction. Plating Conditions CHOK1/TRPA1 Cells: • Harvested cells with 0.025% trypsin/EDTA. • Resuspended cells in growth media without selection antibiotics. • Measured cell density and diluted to 2.4×10^5 cells/ml in media containing 1 ug/ml Doxycycline Plate 25 ul/well into 384 well black/clear tissue culture-treated plates. • Incubated overnight at 37° C. Calcium Flux Assay: Day of Assay: Reagents: • Replacement Buffer: Hank's Balanced Salt Solution, 20 mM HEPES along with 0.005% BSA and 2× Probenecid • Dye Loading Buffer: Cal-3 NW Calcium dye was prepared by dissolving the contents of one vial with […] Hank's Balanced Salt Solution containing 20 mM HEPES. • Control compounds for CHOK1/TRPA1 cells: AP-18, stock 10 mM, prepare 3.5× compound dilution in a Compound Buffer (HBSS/20 mM HEPES/0.005% BSA)—final concentration 10 uM. • Preparation of Cinnamaldehyde (agonist addition): FW=132.16 • Specific gravity=1.046 gm/cc • 1.32 gm/1.046 gm/cc=1.26 ml of stock • Add 1.74 ml DMSO=3.3 M stock • Working solution 4.5× (final 100 uM in Compound Buffer: HBSS/20 mM HEPES/0.005% BSA) • Compounds dilutions were prepared from 5 or 10 mM stock (100% DMSO): • Adjustments of volumes and concentrations were made at time of titration to reflect desired final assay concentrations. • Compounds were tested at either 20 μM three folds dilution 11 steps out or 30 μM two folds dilution 11 steps out. • 3 μl of diluted compound were transferred into Weidmann 384-well plate in duplicates side-by-side. • Compound plates were resuspended with 100 ul of HBSS/20 mM HEPES/0.005% BSA buffer (Compound Buffer): • column 1A-H: buffer/DMSO (bk) • column 2A-H: AP-18 (control antagonist for CHOK1 TRPA1 cells) • column 1I-P: ATP (control for CHOK1 teton cells) • column 2 I-P: 2APB (control antagonist for CHOK1/TRPM8 cells). Growth media was removed from the cell plates (20 ul) and 20 ul of the Replacement Buffer was added followed by addition of 25 ul of diluted dye. All three steps were performed using a Plate Washer BioTek 407. The plates were then incubated for 30′ at RT.
After incubation, both the cell and compound plates were brought to the FLIPR and 20 ul of the diluted compounds/antagonist/bk were transferred to the cell plates by the FLIPR. Plates were then incubated for 30′ at room temperature. After 30′ incubation, plates were returned to the FLIPR and 20 ul of 4.5× Cinnamaldehyde was added to the cell plates. During the compound addition as well as agonist addition, fluorescence readings were taken simultaneously from all 384 wells of the cell plate every 1.5 seconds. Five readings were taken to establish a stable baseline, then 20 ul of sample was rapidly (30 ul/sec) and simultaneously added to each well of the cell plate. The fluorescence was continuously monitored before, during and after sample/agonist addition for a total elapsed time of 100 seconds (compound addition) and 120 seconds (agonist addition). Responses (increase in peak fluorescence) in each well following agonist addition was determined. The initial fluorescence reading from each well, prior to ligand stimulation, was used a zero baseline value for the data from that well.
On the technique in general: Calcium assays in cells follow changes in intracellular calcium, usually with a dye or a luminescent sensor.
On to `CC(C)N(CC(=O)NCc1ccc(F)c(-c2ccc(C(F)(F)F)cc2)c1)S(=O)(=O)c1ccc(F)cc1` [Example 35, 2-[(4-Fluoro-benzenesulfonyl)-isopropyl-amino]-N-(6-fluoro-4′-trifluoromethyl-biphenyl-3-ylmethyl)-acetamide], for which the IC50 was 54 nM.
To `CN(CC(=O)NCc1cc(F)cc(-c2ccc(C(F)(F)F)cc2)c1)S(=O)(=O)c1ccc(F)cc1` [Example 11, 2-[(4-Fluoro-benzenesulfonyl)-methyl-amino]-N-(5-fluoro-4′-trifluoromethyl-biphenyl-3-ylmethyl)-acetamide] belongs 130 nM; to `O=C(CN(CC(F)(F)F)S(=O)(=O)c1ccc(F)cc1)NCc1cccc(-c2ccc(C(F)(F)F)cc2)c1` [Example 13, 2-[(4-fluoro-benzenesulfonyl)-(2,2,2-trifluoro-ethyl)-amino]-N-(4′-trifluoromethyl-biphenyl-3-ylmethyl)-acetamide], 260 nM.
For `CC(C)N(CC(=O)NCc1ccnc(-c2ccc(C(F)(F)F)cc2)c1)S(=O)(=O)c1cccc(F)c1` [Example 59, 2-[(3-Fluoro-benzenesulfonyl)-isopropyl-amino]-N-[2-(4-trifluoromethyl-phenyl)-pyridin-4-ylmethyl]-acetamide], the IC50 is 99 nM.
In the case of `CCN(CC(=O)NCc1cccc(-c2ccc(C(F)(F)F)cn2)c1)S(=O)(=O)c1ccc(F)cc1` [Example 42, 2-[Ethyl-(4-fluoro-benzenesulfonyl)-amino]-N-[3-(5-trifluoromethyl-pyridin-2-yl)-benzyl]-acetamide], the IC50 was 84 nM.
To `CC(C)N(CC(=O)NCc1cc(-c2ccc(C(F)(F)F)cc2)ncn1)S(=O)(=O)c1ccc(F)cc1` [Example 27, 2-[(4-Fluoro-benzenesulfonyl)-isopropyl-amino]-N-[6-(4-trifluoromethyl-phenyl)-pyrimidin-4-ylmethyl]-acetamide] belongs 52 nM.
As to `CC(C)N(CC(=O)NCc1cccc(-c2ccc(C(F)(F)F)cc2)c1)S(=O)(=O)c1ccc(F)cc1` [Example 39, 2-[(4-Fluoro-benzenesulfonyl)-isopropyl-amino]-N-(4′-trifluoromethyl-biphenyl-3-ylmethyl)-acetamide], the IC50 came out at 51 nM.
The same measure for `COc1cc(CNC(=O)CN(C)S(=O)(=O)c2ccc(F)cc2)cc(-c2ccc(C(F)(F)F)cc2)c1` [Example 43, 2-[(4-Fluoro-benzenesulfonyl)-methyl-amino]-N-(5-methoxy-4′-trifluoromethyl-biphenyl-3-ylmethyl)-acetamide]: 380 nM.
To `CC(C)N(CC(=O)NCc1cc(F)cc(-c2ccc(C(F)(F)F)cc2)c1)S(=O)(=O)c1ccc(F)cc1` [Example 36, 2-[(4-Fluoro-benzenesulfonyl)-isopropyl-amino]-N-(5-fluoro-4′-trifluoromethyl-biphenyl-3-ylmethyl)-acetamide] belongs 12 nM.
The same measure for `CC(C)N([C@@H](C)C(=O)NCc1cc(-c2ccc(C(F)(F)F)cc2)ncn1)S(=O)(=O)c1ccc(F)cc1` [Example 32, (S)-2-[(4-Fluoro-benzenesulfonyl)-isopropyl-amino]-N-[6-(4-trifluoromethyl-phenyl)-pyrimidin-4-ylmethyl]-propionamide]: 190 nM; for `CC(C)N(CC(=O)NCc1ccnc(-c2ccc(C(F)(F)F)nc2)c1)S(=O)(=O)c1ccc(F)cc1` [Example 58, 2-[(4-Fluoro-benzenesulfonyl)-isopropyl-amino]-N-(6′-trifluoromethyl-[2,3′]bipyridinyl-4-ylmethyl)-acetamide]: 230 nM; for `COc1cc(CNC(=O)CN(C(C)C)S(=O)(=O)c2ccc(F)cc2)cc(-c2ccc(C(F)(F)F)cc2)c1` [Example 45, 2-[(4-Fluoro-benzenesulfonyl)-isopropyl-amino]-N-(5-methoxy-4′-trifluoromethyl-biphenyl-3-ylmethyl)-acetamide]: 48 nM.
`CC(C)N(CC(=O)NCc1cc(-c2ccc(C(F)(F)F)cc2)ncn1)S(=O)(=O)c1ccccc1C#N` [Example 65, 2-[(2-Cyano-benzenesulfonyl)-isopropyl-amino]-N-[6-(4-trifluoromethyl-phenyl)-pyrimidin-4-ylmethyl]-acetamide]: the IC50 was 3860 nM.
To `C[C@H](C(=O)NCc1cc(-c2ccc(C(F)(F)F)cc2)ncn1)N(C)S(=O)(=O)c1ccc(F)cc1` [Example 38, (R)-2-[(4-Fluoro-benzenesulfonyl)-methyl-amino]-N-[6-(4-trifluoromethyl-phenyl)-pyrimidin-4-ylmethyl]-propionamide] belongs 64 nM; to `COC[C@@H](C(=O)NCc1cccc(-c2ccc(C(F)(F)F)cc2)c1)N(C)S(=O)(=O)c1ccc(F)cc1` [Example 52, (S)-2-[(4-Fluoro-benzenesulfonyl)-methyl-amino]-3-methoxy-N-(4′-trifluoromethyl-biphenyl-3-ylmethyl)-propionamide], 98 nM.
Take `CN(C(CO)C(=O)NCc1cccc(-c2ccc(C(F)(F)F)cc2)c1)S(=O)(=O)c1ccc(F)cc1` (stereo not drawn) [Example 51, 2-[(4-Fluoro-benzenesulfonyl)-methyl-amino]-3-hydroxy-N-(4′-trifluoromethyl-biphenyl-3-ylmethyl)-propionamide]: the IC50 was found to be 130 nM.
To `O=C(NCc1cccc(-c2ccc(C(F)(F)F)cc2)c1)C(NS(=O)(=O)c1ccc(F)cc1)C1CC1` (stereo not drawn) [Example 24, 2-cyclopropyl-2-(4-fluoro-benzenesulfonylamino)-N-(4′-trifluoromethyl-biphenyl-3-ylmethyl)-acetamide] belongs 1030 nM; to `CC(C)N(CC(=O)NCc1cc(-c2ccc(C(F)(F)F)cc2)ncn1)S(=O)(=O)c1cccc(F)c1` [Example 49, 2-[(3-Fluoro-benzenesulfonyl)-isopropyl-amino]-N-[6-(4-trifluoromethyl-phenyl)-pyrimidin-4-ylmethyl]-acetamide], 70 nM; to `CN(CC(=O)NCc1cc(-c2ccc(C(F)(F)F)cc2)ncn1)S(=O)(=O)c1ccc(Cl)s1` [Example 25, 2-[(5-chloro-thiophene-2-sulfonyl)-methyl-amino]-N-[6-(4-trifluoromethyl-phenyl)-pyrimidin-4-ylmethyl]-acetamide], 42 nM.
The same measure for `CN(CC(=O)NCc1ccc(-c2ccc(C(F)(F)F)cc2)cc1)S(=O)(=O)c1ccc(F)cc1` [Example 10, 2-[(4-Fluoro-benzenesulfonyl)-methyl-amino]-N-(4′-trifluoromethyl-biphenyl-4-ylmethyl)-acetamide]: 4800 nM; for `O=C(CNS(=O)(=O)c1ccc(F)cc1)NCc1cccc(-c2ccc(C(F)(F)F)cc2)c1` [Example 3, 2-(4-Fluoro-benzenesulfonylamino)-N-(4′-trifluoromethyl-biphenyl-3-ylmethyl)-acetamide]: 1080 nM.
With `CC(C)N(CC(=O)NCc1cccc(-c2ccc(C(F)(F)F)cc2)c1)S(=O)(=O)c1cccc(F)c1` [Example 48, 2-[(3-Fluoro-benzenesulfonyl)-isopropyl-amino]-N-(4′-trifluoromethyl-biphenyl-3-ylmethyl)-acetamide], the IC50 was found to be 34 nM.
To `CC(C)N(CC(=O)NCc1cc(F)cc(-c2ccc(C(F)(F)F)nc2)c1)S(=O)(=O)c1ccc(F)cc1` [Example 63, 2-[(4-Fluoro-benzenesulfonyl)-isopropyl-amino]-N-[3-fluoro-5-(6-trifluoromethyl-pyridin-3-yl)-benzyl]-acetamide] belongs 38 nM; to `CC(O)CN(CC(=O)NCc1cccc(-c2ccc(C(F)(F)F)cc2)c1)S(=O)(=O)c1ccc(F)cc1` (stereo not drawn) [Example 20, 2-[(4-Fluoro-benzenesulfonyl)-(2-hydroxy-propyl)-amino]-N-(4′-trifluoromethyl-biphenyl-3-ylmethyl)-acetamide], 160 nM.

A word on the IC50: it is the concentration that gives 50% inhibition.
